ChEMBL document CHEMBL3351940, “Antioxidant effects of the highly-substituted carbazole alkaloids and their related carbazoles” (Bioorg Med Chem Lett, 2014)

Columns and labels:
[1] = Antioxidant activity assessed as ABTS+ radical scavenging capacity after 16 hrs by UV spectrophotometry; type: physicochemical
[2] = Antioxidant activity assessed as DPPH radical scavenging capacity after 30 mins by UV spectrophotometry; type: physicochemical
[3] = Antioxidant activity assessed as reduction of Cu2+ to Cu+ after 3 mins by PAO-SO method; type: physicochemical; details: 0.05 h
[4] = Cytotoxicity against human HCT116 cells assessed as reduction cell viability at 100 uM after 48 hrs by MTT assay; type: cell-based; details: hct-116, 48 h

| Compound | IC50 [1] [µM] | IC50 [2] [µM] | Activity [3] | Activity [4] |
| --- | --- | --- | --- | --- |
| CC(C)=CCc1ccc2[nH]c3c(c2c1)C(=O)C(=O)C(C)=C3CC(C)O (centres undefined) | > 500 | > 50 | 1182 µmol/L | Toxic |
| Cc1c(O)cc2c([nH]c3ccccc32)c1CC(C)O (centres undefined) | 161 | 12 | 2881 µmol/L | Non-toxic |
| CC(C)=CCc1ccc2[nH]c3c(CC(C)O)c(C)c(O)cc3c2c1 (centres undefined) | 175 | 12 | 2411 µmol/L | Toxic |
| Cc1c(C)c2c(c(C)c1O)CC[C@@](C)(CCC[C@H](C)CCC[C@H](C)CCCC(C)C)O2 [ALPHA-TOCOPHEROL] | 211 | 15.4 | Active | Non-toxic |
| CC1=NN(c2ccccc2)C(=O)C1 [EDARAVONE] | 214 | 19.7 | 3096 µmol/L | Non-toxic |
| CCCOC(=O)c1cc(O)c(O)c(O)c1 [PROPYL GALLATE] | 188 | 6.1 | 3096 µmol/L | Non-toxic |

Continued, in another order:

| IC50 [1] [µM] | IC50 [2] [µM] | Activity [3] | Compound | Activity [4] |
| --- | --- | --- | --- | --- |
| 159 | 12 | 2803 µmol/L | CCCCCCCc1c(C)c(O)cc2c1[nH]c1ccccc12 | Non-toxic |
| 112 | 9.9 | 3567 µmol/L | C/C(=C\c1c(C)c(O)cc2c1[nH]c1c(O)ccc(CO)c12)CCC(C)C | Non-toxic |
| 52.6 | 7.1 | 4584 µmol/L | C/C(=C\c1c(C)c(O)cc2c1[nH]c1c(O)ccc(C=O)c12)CCC(C)C | Non-toxic |
| 116 | 9.8 | 3413 µmol/L | CC[C@H](C)CC/C(C)=C/c1c(C)c(O)cc2c1[nH]c1c(O)ccc(CO)c12 | Non-toxic |
| 57.1 | 7.6 | 4580 µmol/L | CC[C@H](C)CC/C(C)=C/c1c(C)c(O)cc2c1[nH]c1c(O)ccc(C=O)c12 | Non-toxic |
